From US8802597B2, “Herbicidal pyrimidines” (E I du Pont de Nemours and Company, priority 2003, dated 2014)

Experiments:
Test in all cases: Test G pre/postemergence
Assay type in all cases: in vivo
Details in all cases: Preemergence
[1] = tested on: green foxtail (Setaria viridis)
Description: (§1) Seeds or nutlets of plant species selected from bermudagrass (Cynodon dactylon), Surinam grass (Brachiaria decumbens), large crabgrass (Digitaria sanguinalis), green foxtail (Setaria viridis), goosegrass (Eleusine indica), johnsongrass (Sorghum halepense), kochia (Kochia scoparia), pitted morningglory (Ipomoea lacunosa), purple nutsedge (Cyperus rotundus), common ragweed (Ambrosia elatior), black mustard (Brassica nigra), guineagrass (Panicum maximum), dallisgrass (Paspalum dilatatum), barnyardgrass (Echinochloa crus-galli), southern sandbur (Cenchrus echinatus), common sowthistle (Sonchus oleraceous), prickly sida (Sida spinosa), Italian ryegrass (Lolium multiflorum), common purslane (Portulaca oleracea), broadleaf signalgrass (Brachiaria platyphylla), common groundsel (Senecio vulgaris), common chickweed (Stellaria media), tropical spiderwort (Commelina benghalensis), annual bluegrass (Poa annua), downy bromegrass (Bromus tectorum), itchgrass (Rottboellia cochinchinensis), quackgrass (Elytrigia repens), Canada horseweed (Conyza canadensis), field bindweed (Convolvulus arvensis), spanishneedles (Bidens bipinnata), common mallow (Malva sylvestris), and Russian thistle (Salsola kali) were planted and treated preemergence with test chemicals formulated in a non-phytotoxic solvent mixture which included a surfactant.
(§2) At the same time, plants selected from these weed species were treated with postemergence applications of some of the test chemicals formulated in the same manner. Plants ranged in height from 2 to 18 cm (1- to 4-leaf stage) for postemergence treatments. Treated plants and controls were maintained in a greenhouse for 12 to 21 days, after which time all species were compared to controls and visually evaluated.
(§3) Plant response ratings, summarized in Table G, are based on a scale of 0 to 100 where 0 is no effect and 100 is complete control. A dash (-) response means no test result.

[2] = tested on: pitted morningglory (Ipomoea lacunosa)
Description: as §1, §2, §3

[3] = tested on: common mallow (Malva sylvestris)
Description: as §1, §2, §3

[4] = tested on: tropical spiderwort (Commelina benghalensis)
Description: as §1, §2, §3

[5] = tested on: southern sandbur (Cenchrus echinatus)
Description: as §1, §2, §3

[6] = tested on: prickly sida (Sida spinosa)
Description: as §1, §2, §3

[7] = tested on: itchgrass (Rottboellia cochinchinensis)
Description: as §1, §2, §3

[8] = tested on: Italian ryegrass (Lolium multiflorum)
Description: as §1, §2, §3

[9] = tested on: broadleaf signalgrass (Brachiaria platyphylla)
Description: as §1, §2, §3

[10] = tested on: johnsongrass (Sorghum halepense)
Description: as §1, §2, §3

[11] = tested on: black mustard (Brassica nigra)
Description: as §1, §2, §3

[12] = tested on: barnyardgrass (Echinochloa crus-galli)
Description: as §1, §2, §3

[13] = tested on: annual bluegrass (Poa annua)
Description: as §1, §2, §3

[14] = tested on: large crabgrass (Digitaria sanguinalis)
Description: as §1, §2, §3

## CCOC(=O)c1nc(C2CC2)nc(N)c1Cl [Compound 4, ethyl 6-amino-5-chloro-2-cyclopropyl-4-pyrimidinecarboxylate]
[1]; 62 g ai/ha, scale 0-100
  Plant response rating, Foxtail, Green: 20
[1]; 125 g ai/ha, scale 0-100
  Plant response rating, Foxtail, Green: 70
[1]; 250 g ai/ha, scale 0-100
  Plant response rating, Foxtail, Green: 100
[1]; 500 g ai/ha, scale 0 to 100
  Plant response rating, Foxtail, Green: 100
[2]; 62 g ai/ha, scale 0-100
  Plant response rating, Morningglory: 100
[2]; 125 g ai/ha, scale 0-100
  Plant response rating, Morningglory: 100
[2]; 250 g ai/ha, scale 0-100
  Plant response rating, Morningglory: 100
[2]; 500 g ai/ha, scale 0 to 100
  Plant response rating, Morningglory: 100
[3]; 62 g ai/ha, scale 0-100
  Plant response rating, Mallow: 100
[3]; 125 g ai/ha, scale 0-100
  Plant response rating, Mallow: 100
[3]; 250 g ai/ha, scale 0-100
  Plant response rating, Mallow: 100
[3]; 500 g ai/ha, scale 0 to 100
  Plant response rating, Mallow: 100
[4]; 62 g ai/ha, scale 0-100
  Plant response rating, Spiderwort: 100
[4]; 125 g ai/ha, scale 0-100
  Plant response rating, Spiderwort: 100
[4]; 250 g ai/ha, scale 0-100
  Plant response rating, Spiderwort: 100
[4]; 500 g ai/ha, scale 0 to 100
  Plant response rating, Spiderwort: 100
[5]; 62 g ai/ha, scale 0-100
  Plant response rating, Sandbur: 30
[5]; 125 g ai/ha, scale 0-100
  Plant response rating, Sandbur: 80
[5]; 250 g ai/ha, scale 0-100
  Plant response rating, Sandbur: 90
[5]; 500 g ai/ha, scale 0 to 100
  Plant response rating, Sandbur: 100
[6]; 62 g ai/ha, scale 0-100
  Plant response rating, Prickly Sida: 85
[6]; 125 g ai/ha, scale 0-100
  Plant response rating, Prickly Sida: 100
[6]; 250 g ai/ha, scale 0-100
  Plant response rating, Prickly Sida: 100
[6]; 500 g ai/ha, scale 0 to 100
  Plant response rating, Prickly Sida: 100
[7]; 62 g ai/ha, scale 0-100
  Plant response rating, Itchgrass: 70
[7]; 125 g ai/ha, scale 0-100
  Plant response rating, Itchgrass: 70
[7]; 250 g ai/ha, scale 0-100
  Plant response rating, Itchgrass: 80
[7]; 500 g ai/ha, scale 0 to 100
  Plant response rating, Itchgrass: 95
[8]; 62 g ai/ha, scale 0-100
  Plant response rating, Ryegrass, Italian: 30
[8]; 125 g ai/ha, scale 0-100
  Plant response rating, Ryegrass, Italian: 60
[8]; 250 g ai/ha, scale 0-100
  Plant response rating, Ryegrass, Italian: 100
[8]; 500 g ai/ha, scale 0 to 100
  Plant response rating, Ryegrass, Italian: 100
[9]; 62 g ai/ha, scale 0-100
  Plant response rating, Signalgrass: 50
[9]; 125 g ai/ha, scale 0-100
  Plant response rating, Signalgrass: 70
[9]; 250 g ai/ha, scale 0-100
  Plant response rating, Signalgrass: 95
[9]; 500 g ai/ha, scale 0 to 100
  Plant response rating, Signalgrass: 95
[10]; 62 g ai/ha, scale 0-100
  Plant response rating, Johnsongrass: 60
[10]; 125 g ai/ha, scale 0-100
  Plant response rating, Johnsongrass: 75
[10]; 250 g ai/ha, scale 0-100
  Plant response rating, Johnsongrass: 85
[10]; 500 g ai/ha, scale 0 to 100
  Plant response rating, Johnsongrass: 95
[11]; 62 g ai/ha, scale 0-100
  Plant response rating, Black Mustard: 95
[11]; 125 g ai/ha, scale 0-100
  Plant response rating, Black Mustard: 95
[11]; 250 g ai/ha, scale 0-100
  Plant response rating, Black Mustard: 100
[11]; 500 g ai/ha, scale 0 to 100
  Plant response rating, Black Mustard: 100
[12]; 62 g ai/ha, scale 0-100
  Plant response rating, Barnyardgrass: 50
[12]; 125 g ai/ha, scale 0-100
  Plant response rating, Barnyardgrass: 70
[12]; 250 g ai/ha, scale 0-100
  Plant response rating, Barnyardgrass: 80
[12]; 500 g ai/ha, scale 0 to 100
  Plant response rating, Barnyardgrass: 100
[13]; 62 g ai/ha, scale 0-100
  Plant response rating, Bluegrass: 10
[13]; 125 g ai/ha, scale 0-100
  Plant response rating, Bluegrass: 60
[13]; 250 g ai/ha, scale 0-100
  Plant response rating, Bluegrass: 80
[13]; 500 g ai/ha, scale 0 to 100
  Plant response rating, Bluegrass: 100
[14]; 62 g ai/ha, scale 0-100
  Plant response rating, Crabgrass, Large: 60
[14]; 125 g ai/ha, scale 0-100
  Plant response rating, Crabgrass, Large: 75
[14]; 250 g ai/ha, scale 0-100
  Plant response rating, Crabgrass, Large: 100
[14]; 500 g ai/ha, scale 0 to 100
  Plant response rating, Crabgrass, Large: 100

## COC(=O)c1nc(C2CC2)nc(N)c1Cl [Compound 9, methyl 6-amino-5-chloro-2-cyclopropyl-4-pyrimidinecarboxylate]
[1]; 62 g ai/ha, scale 0-100
  Plant response rating, Foxtail, Green: 20
[1]; 125 g ai/ha, scale 0-100
  Plant response rating, Foxtail, Green: 85
[1]; 250 g ai/ha, scale 0-100
  Plant response rating, Foxtail, Green: 100
[1]; 500 g ai/ha, scale 0 to 100
  Plant response rating, Foxtail, Green: 100
[2]; 62 g ai/ha, scale 0-100
  Plant response rating, Morningglory: 70
[2]; 125 g ai/ha, scale 0-100
  Plant response rating, Morningglory: 100
[2]; 250 g ai/ha, scale 0-100
  Plant response rating, Morningglory: 100
[2]; 500 g ai/ha, scale 0 to 100
  Plant response rating, Morningglory: 100
[3]; 62 g ai/ha, scale 0-100
  Plant response rating, Mallow: 90
[3]; 125 g ai/ha, scale 0-100
  Plant response rating, Mallow: 100
[3]; 250 g ai/ha, scale 0-100
  Plant response rating, Mallow: 100
[3]; 500 g ai/ha, scale 0 to 100
  Plant response rating, Mallow: 100
[4]; 62 g ai/ha, scale 0-100
  Plant response rating, Spiderwort: 100
[4]; 125 g ai/ha, scale 0-100
  Plant response rating, Spiderwort: 100
[4]; 250 g ai/ha, scale 0-100
  Plant response rating, Spiderwort: 100
[4]; 500 g ai/ha, scale 0 to 100
  Plant response rating, Spiderwort: 100
[5]; 125 g ai/ha, scale 0-100
  Plant response rating, Sandbur: 80
[5]; 250 g ai/ha, scale 0-100
  Plant response rating, Sandbur: 90
[5]; 500 g ai/ha, scale 0 to 100
  Plant response rating, Sandbur: 95
[6]; 62 g ai/ha, scale 0-100
  Plant response rating, Prickly Sida: 95
[6]; 125 g ai/ha, scale 0-100
  Plant response rating, Prickly Sida: 100
[6]; 250 g ai/ha, scale 0-100
  Plant response rating, Prickly Sida: 100
[6]; 500 g ai/ha, scale 0 to 100
  Plant response rating, Prickly Sida: 100
[7]; 62 g ai/ha, scale 0-100
  Plant response rating, Itchgrass: 30
[7]; 125 g ai/ha, scale 0-100
  Plant response rating, Itchgrass: 60
[7]; 250 g ai/ha, scale 0-100
  Plant response rating, Itchgrass: 80
[7]; 500 g ai/ha, scale 0 to 100
  Plant response rating, Itchgrass: 85
[8]; 62 g ai/ha, scale 0-100
  Plant response rating, Ryegrass, Italian: 20
[8]; 125 g ai/ha, scale 0-100
  Plant response rating, Ryegrass, Italian: 50
[8]; 250 g ai/ha, scale 0-100
  Plant response rating, Ryegrass, Italian: 75
[8]; 500 g ai/ha, scale 0 to 100
  Plant response rating, Ryegrass, Italian: 80
[9]; 62 g ai/ha, scale 0-100
  Plant response rating, Signalgrass: 20
[9]; 125 g ai/ha, scale 0-100
  Plant response rating, Signalgrass: 80
[9]; 250 g ai/ha, scale 0-100
  Plant response rating, Signalgrass: 80
[9]; 500 g ai/ha, scale 0 to 100
  Plant response rating, Signalgrass: 100
[10]; 62 g ai/ha, scale 0-100
  Plant response rating, Johnsongrass: 40
[10]; 125 g ai/ha, scale 0-100
  Plant response rating, Johnsongrass: 80
[10]; 250 g ai/ha, scale 0-100
  Plant response rating, Johnsongrass: 95
[10]; 500 g ai/ha, scale 0 to 100
  Plant response rating, Johnsongrass: 95
[11]; 62 g ai/ha, scale 0-100
  Plant response rating, Black Mustard: 70
[11]; 125 g ai/ha, scale 0-100
  Plant response rating, Black Mustard: 75
[11]; 250 g ai/ha, scale 0-100
  Plant response rating, Black Mustard: 100
[11]; 500 g ai/ha, scale 0 to 100
  Plant response rating, Black Mustard: 100
[12]; 62 g ai/ha, scale 0-100
  Plant response rating, Barnyardgrass: 30
[12]; 125 g ai/ha, scale 0-100
  Plant response rating, Barnyardgrass: 70
[12]; 250 g ai/ha, scale 0-100
  Plant response rating, Barnyardgrass: 85
[12]; 500 g ai/ha, scale 0 to 100
  Plant response rating, Barnyardgrass: 95
[13]; 62 g ai/ha, scale 0-100
  Plant response rating, Bluegrass: 10
[13]; 125 g ai/ha, scale 0-100
  Plant response rating, Bluegrass: 30
[13]; 250 g ai/ha, scale 0-100
  Plant response rating, Bluegrass: 95
[13]; 500 g ai/ha, scale 0 to 100
  Plant response rating, Bluegrass: 100
[14]; 62 g ai/ha, scale 0-100
  Plant response rating, Crabgrass, Large: 70
[14]; 125 g ai/ha, scale 0-100
  Plant response rating, Crabgrass, Large: 90
[14]; 250 g ai/ha, scale 0-100
  Plant response rating, Crabgrass, Large: 90
[14]; 500 g ai/ha, scale 0 to 100
  Plant response rating, Crabgrass, Large: 100
